Source: PubChem BioAssay AID2060496 (Molecular Pharmacology Branch, DTP, NCI, 2025)

Test system: 276233-004-R-J1-PDC complex spheroid viability
Assay: Anticancer human tumor 276233-004-R-J1-PDC patient-derived colon adenocarcinoma cell line growth inhibition [GQUAD]
Conditions: for IC50: curve of first compound; for viability, T/C: stronger effect = lower value
How it was run: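 Viability of tumor cells grown as complex spheroids with endothelial and stromal cells, exposed to drug combinations. Top concentration at or near clinical Cmax (else 10 microM), diluted in half-log increments.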

[1] = second compound 0.0316 µM, first compound 0.0316 µM
[2] = second compound 0.0316 µM, first compound 0.1 µM
[3] = second compound 0.0316 µM, first compound 0.316 µM
[4] = second compound 0.0316 µM, first compound 1 µM
[5] = second compound 0.0316 µM, first compound 3.16 µM
[6] = second compound 0.0316 µM, first compound 10 µM
[7] = second compound 0.1 µM, first compound 0.0316 µM
[8] = second compound 0.1 µM, first compound 0.1 µM
[9] = second compound 0.1 µM, first compound 0.316 µM
[10] = second compound 0.1 µM, first compound 1 µM
[11] = second compound 0.1 µM, first compound 3.16 µM
[12] = second compound 0.1 µM, first compound 10 µM
[13] = second compound 0.316 µM, first compound 0.0316 µM
[14] = second compound 0.316 µM, first compound 0.1 µM
[15] = second compound 0.316 µM, first compound 0.316 µM
[16] = second compound 0.316 µM, first compound 1 µM
[17] = second compound 0.316 µM, first compound 3.16 µM
[18] = second compound 0.316 µM, first compound 10 µM
[19] = second compound 1 µM, first compound 0.0316 µM
[20] = second compound 1 µM, first compound 0.1 µM
[21] = second compound 1 µM, first compound 0.316 µM
[22] = second compound 1 µM, first compound 1 µM
[23] = second compound 1 µM, first compound 3.16 µM
[24] = second compound 1 µM, first compound 10 µM
[25] = second compound 3.16 µM, first compound 0.0316 µM
[26] = second compound 3.16 µM, first compound 0.1 µM
[27] = second compound 3.16 µM, first compound 0.316 µM
[28] = second compound 3.16 µM, first compound 1 µM
[29] = second compound 3.16 µM, first compound 3.16 µM
[30] = second compound 3.16 µM, first compound 10 µM
[31] = second compound 10 µM, first compound 0.0316 µM
[32] = second compound 10 µM, first compound 0.1 µM
[33] = second compound 10 µM, first compound 0.316 µM
[34] = second compound 10 µM, first compound 1 µM
[35] = second compound 10 µM, first compound 3.16 µM
[36] = second compound 10 µM, first compound 10 µM
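Note: spheroids exposed to drugs for seven days.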
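Throughout, for viability, T/C: 100% = DMSO vehicle control viability.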

COc1ncnc(C2CC2)c1-c1ncc2cnn(Cc3ccc(-c4nc(C(F)(F)F)cn4C(C)C)cc3)c2n1 + Cc1cnc(CNC(=O)c2c(=O)c3ccc(N4CCCN(C)CC4)nc3n3c2sc2ccccc23)cn1
IC50 (second compound 0.0316 µM): > 10 µM
IC50 (second compound 0.1 µM): > 10 µM
IC50 (second compound 0.316 µM): > 10 µM
IC50 (second compound 1 µM): > 10 µM
IC50 (second compound 3.16 µM): > 10 µM
IC50 (second compound 10 µM): > 10 µM
viability, T/C [1]: 81.9%
viability, T/C [2]: 77.1%
viability, T/C [3]: 66.1%
viability, T/C [4]: 79.7%
viability, T/C [5]: 86.2%
viability, T/C [6]: 89%
viability, T/C [7]: 76.2%
viability, T/C [8]: 95.5%
viability, T/C [9]: 83%
viability, T/C [10]: 84.2%
viability, T/C [11]: 76.9%
viability, T/C [12]: 84.5%
viability, T/C [13]: 87.3%
viability, T/C [14]: 91.2%
viability, T/C [15]: 83.4%
viability, T/C [16]: 87.9%
viability, T/C [17]: 78.4%
viability, T/C [18]: 86.4%
viability, T/C [19]: 84.6%
viability, T/C [20]: 81.4%
viability, T/C [21]: 81.5%
viability, T/C [22]: 74.5%
viability, T/C [23]: 74.8%
viability, T/C [24]: 89.6%
viability, T/C [25]: 76.1%
viability, T/C [26]: 65.1%
viability, T/C [27]: 80.5%
viability, T/C [28]: 62.4%
viability, T/C [29]: 64.5%
viability, T/C [30]: 75.5%
viability, T/C [31]: 67.9%
viability, T/C [32]: 60.9%
viability, T/C [33]: 64.3%
viability, T/C [34]: 62.9%
viability, T/C [35]: 69.6%
viability, T/C [36]: 65.2%

O=C(NO)c1cnc(N2CCN(S(=O)(=O)c3ccc4ccccc4c3)CC2)nc1 + Cc1[nH]c2ccc(F)cc2c1-c1nc2c3cccnc3c3ncccc3c2[nH]1
IC50 (second compound 0.0316 µM): 0.427 µM
IC50 (second compound 0.1 µM): 0.372 µM
IC50 (second compound 0.316 µM): 0.36 µM
IC50 (second compound 1 µM): 0.102 µM
IC50 (second compound 3.16 µM): < 0.0316 µM
IC50 (second compound 10 µM): < 0.0316 µM
viability, T/C [1]: 87.1%
viability, T/C [2]: 86%
viability, T/C [3]: 66.7%
viability, T/C [4]: 2.71%
viability, T/C [5]: 0.44%
viability, T/C [6]: 0.48%
viability, T/C [7]: 83.2%
viability, T/C [8]: 108%
viability, T/C [9]: 57.9%
viability, T/C [10]: 5.03%
viability, T/C [11]: 0.38%
viability, T/C [12]: 0.83%
viability, T/C [13]: 50.4%
viability, T/C [14]: 71.8%
viability, T/C [15]: 56.1%
viability, T/C [16]: 2.35%
viability, T/C [17]: 2.07%
viability, T/C [18]: 0.4%
viability, T/C [19]: 58.8%
viability, T/C [20]: 41.5%
viability, T/C [21]: 42.8%
viability, T/C [22]: 3.96%
viability, T/C [23]: 1.07%
viability, T/C [24]: 0.62%
viability, T/C [25]: 17.4%
viability, T/C [26]: 17%
viability, T/C [27]: 14.8%
viability, T/C [28]: 1.23%
viability, T/C [29]: 1.33%
viability, T/C [30]: 0.42%
viability, T/C [31]: 26.4%
viability, T/C [32]: 26.6%
viability, T/C [33]: 22.1%
viability, T/C [34]: 3.12%
viability, T/C [35]: 1.25%
viability, T/C [36]: 0.61%

C#Cc1c(F)ccc2cc(O)cc(-c3ncc4c(N5CC6CCC(C5)N6)nc(OCC56CCCN5CC(F)C6)nc4c3F)c12 (stereo not given) + Cc1cnc(CNC(=O)c2c(=O)c3ccc(N4CCCN(C)CC4)nc3n3c2sc2ccccc23)cn1
IC50 (second compound 0.0316 µM): > 10 µM
IC50 (second compound 0.1 µM): > 10 µM
IC50 (second compound 0.316 µM): > 10 µM
IC50 (second compound 1 µM): 7.14 µM
IC50 (second compound 3.16 µM): 1.55 µM
IC50 (second compound 10 µM): 1.43 µM
viability, T/C [1]: 115%
viability, T/C [2]: 86.6%
viability, T/C [3]: 101%
viability, T/C [4]: 77.5%
viability, T/C [5]: 83%
viability, T/C [6]: 57.8%
viability, T/C [7]: 95.2%
viability, T/C [8]: 77.7%
viability, T/C [9]: 75.3%
viability, T/C [10]: 75%
viability, T/C [11]: 70.7%
viability, T/C [12]: 60.5%
viability, T/C [13]: 84.1%
viability, T/C [14]: 73%
viability, T/C [15]: 85.7%
viability, T/C [16]: 80.8%
viability, T/C [17]: 69.5%
viability, T/C [18]: 59.6%
viability, T/C [19]: 84.2%
viability, T/C [20]: 71.4%
viability, T/C [21]: 75.5%
viability, T/C [22]: 73%
viability, T/C [23]: 62.8%
viability, T/C [24]: 44.4%
viability, T/C [25]: 65.2%
viability, T/C [26]: 76.2%
viability, T/C [27]: 66.9%
viability, T/C [28]: 53.8%
viability, T/C [29]: 44.5%
viability, T/C [30]: 41%
viability, T/C [31]: 64.1%
viability, T/C [32]: 73.5%
viability, T/C [33]: 67.7%
viability, T/C [34]: 45.8%
viability, T/C [35]: 43.2%
viability, T/C [36]: 5.43%

Cc1cccc(N(C)C(=O)C2C(O)CCN2c2nc(C)cc(C(F)(F)F)c2C#N)c1 (stereo not given) + Cc1[nH]c2ccc(F)cc2c1-c1nc2c3cccnc3c3ncccc3c2[nH]1
IC50 (second compound 0.0316 µM): > 10 µM
IC50 (second compound 0.1 µM): > 10 µM
IC50 (second compound 0.316 µM): > 10 µM
IC50 (second compound 1 µM): > 10 µM
IC50 (second compound 3.16 µM): > 10 µM
IC50 (second compound 10 µM): > 10 µM
viability, T/C [1]: 110%
viability, T/C [2]: 83.8%
viability, T/C [3]: 87.2%
viability, T/C [4]: 87.4%
viability, T/C [5]: 117%
viability, T/C [6]: 114%
viability, T/C [7]: 88.2%
viability, T/C [8]: 95.6%
viability, T/C [9]: 86.4%
viability, T/C [10]: 95.3%
viability, T/C [11]: 96.6%
viability, T/C [12]: 97.8%
viability, T/C [13]: 74.6%
viability, T/C [14]: 78%
viability, T/C [15]: 103%
viability, T/C [16]: 97.8%
viability, T/C [17]: 96%
viability, T/C [18]: 96.8%
viability, T/C [19]: 77.4%
viability, T/C [20]: 85.2%
viability, T/C [21]: 71.6%
viability, T/C [22]: 79.2%
viability, T/C [23]: 90.5%
viability, T/C [24]: 85.2%
viability, T/C [25]: 60.5%
viability, T/C [26]: 56.8%
viability, T/C [27]: 61.6%
viability, T/C [28]: 59.6%
viability, T/C [29]: 59.8%
viability, T/C [30]: 62.6%
viability, T/C [31]: 53.7%
viability, T/C [32]: 58.4%
viability, T/C [33]: 58.6%
viability, T/C [34]: 52.1%
viability, T/C [35]: 58%
viability, T/C [36]: 64.7%

COc1ncnc(C2CC2)c1-c1ncc2cnn(Cc3ccc(-c4nc(C(F)(F)F)cn4C(C)C)cc3)c2n1 + CN(C)c1ccc(Nc2c3ccc(NC(=O)CCN4CCCC4)cc3nc3cc(NC(=O)CCN4CCCC4)ccc23)cc1
IC50 (second compound 0.0316 µM): > 10 µM
IC50 (second compound 0.1 µM): > 10 µM
IC50 (second compound 0.316 µM): > 10 µM
IC50 (second compound 1 µM): 0.0316 µM
IC50 (second compound 3.16 µM): < 0.0316 µM
IC50 (second compound 10 µM): < 0.0316 µM
viability, T/C [1]: 87.4%
viability, T/C [2]: 84.2%
viability, T/C [3]: 74.3%
viability, T/C [4]: 75.6%
viability, T/C [5]: 68.8%
viability, T/C [6]: 100%
viability, T/C [7]: 70.4%
viability, T/C [8]: 90.2%
viability, T/C [9]: 77.5%
viability, T/C [10]: 75.8%
viability, T/C [11]: 58.6%
viability, T/C [12]: 65.8%
viability, T/C [13]: 69.4%
viability, T/C [14]: 72.7%
viability, T/C [15]: 59.9%
viability, T/C [16]: 44%
viability, T/C [17]: 69.4%
viability, T/C [18]: 72.5%
viability, T/C [19]: 57.3%
viability, T/C [20]: 49.6%
viability, T/C [21]: 51.4%
viability, T/C [22]: 47%
viability, T/C [23]: 65.3%
viability, T/C [24]: 68.5%
viability, T/C [25]: 53.2%
viability, T/C [26]: 35.7%
viability, T/C [27]: 53.1%
viability, T/C [28]: 49.5%
viability, T/C [29]: 56.7%
viability, T/C [30]: 57.6%
viability, T/C [31]: 35.6%
viability, T/C [32]: 41.8%
viability, T/C [33]: 36.7%
viability, T/C [34]: 38.4%
viability, T/C [35]: 58.4%
viability, T/C [36]: 53.5%
